Assay results from patent US10167262B2, “Herbicidal substituted 3-arylpyrazoles” (FMC CORPORATION, priority 2014, dated 2019).

Legend:
Assay in all cases: Test D postemergence controlled growth environment test, plant response rating 0-100
Format in all cases: in vivo
[1] = test system: Italian ryegrass (Lolium multiflorum)
Source text: (§1) Seeds of plant species selected from bluegrass (annual bluegrass, Poa annua), blackgrass (Alopecurus myosuroides), canarygrass (Phalaris minor), chickweed (common chickweed, Stellaria media), galium (catchweed bedstraw, Galium aparine), downy bromegrass (Bromus tectorum), field violet (Viola arvensis), green foxtail (Setaria viridis), deadnettle (henbit deadnettle, Lamium amplexicaule), Italian ryegrass (Lolium multiflorum), kochia (Kochia scoparia), lambsquarters (Chenopodium album), oilseed rape (Brassica napus), pigweed (Amaranthus retroflexus), Russian thistle (Salsola kali), spring barley (Hordeum vulgare), spring wheat (Triticum aestivum), wild buckwheat (Polygonum convolvulus), wild mustard (Sinapis arvensis), wild oat (Avena fatua), windgrass (Apera spica-venti), winter barley (Hordeum vulgare), and winter wheat (Triticum aestivum) were planted in pots containing Redi-Earth® planting medium (Scotts Company, 14111 Scottslawn Road, Marysville, Ohio 43041) comprising spaghnum peat moss, vermiculite, wetting agent and starter nutrients and treated with postemergence applications of test chemicals formulated in a non-phytotoxic solvent mixture which included a surfactant. Plants ranged in height from 2 to 18 cm (1- to 4-leaf stage). Treated plants and controls were maintained in a controlled growth environment for 14 days after which time all species were compared to controls and visually evaluated. Plant response ratings, summarized in Table D, are based on a scale of 0 to 100 where 0 is no effect and 100 is complete control. A dash (-) response means no test result.

[2] = test system: Russian thistle (Salsola kali)
Source text: as §1

[3] = test system: blackgrass (Alopecurus myosuroides)
Source text: as §1

[4] = test system: bluegrass (annual bluegrass, Poa annua)
Source text: as §1

[5] = test system: canarygrass (Phalaris minor)
Source text: as §1

[6] = test system: chickweed (common chickweed, Stellaria media)
Source text: as §1

[7] = test system: downy bromegrass (Bromus tectorum)
Source text: as §1

[8] = test system: field violet (Viola arvensis)
Source text: as §1

[9] = test system: galium (catchweed bedstraw, Galium aparine)
Source text: as §1

[10] = test system: green foxtail (Setaria viridis)
Source text: as §1

kochia (Kochia scoparia) = test system: kochia (Kochia scoparia)
Source text: as §1

[11] = test system: lambsquarters (Chenopodium album)
Source text: as §1

[12] = test system: pigweed (Amaranthus retroflexus)
Source text: as §1

[13] = test system: spring barley (Hordeum vulgare)
Source text: as §1

[14] = test system: spring wheat (Triticum aestivum)
Source text: as §1

[15] = test system: wild buckwheat (Polygonum convolvulus)
Source text: as §1

[16] = test system: wild mustard (Sinapis arvensis)
Source text: as §1

wild oat (Avena fatua) = test system: wild oat (Avena fatua)
Source text: as §1

[17] = test system: winter barley (Hordeum vulgare)
Source text: as §1

[18] = test system: winter wheat (Triticum aestivum)
Source text: as §1

C#CCn1cc(C(=O)c2ccccc2)c(-c2cc(Cl)cc(Cl)c2)n1 [Compound 39, [3-(3,5-dichlorophenyl)-1-(2-propyn-1-yl)-1H-pyrazol-4-yl]phenylmethanone]
Plant response rating, Ryegrass, Italian ([1]; 16 g ai/ha): 0 | Plant response rating, Ryegrass, Italian ([1]; 31 g ai/ha): 0 | Plant response rating, Ryegrass, Italian ([1]; 62 g ai/ha): 0 | Plant response rating, Ryegrass, Italian ([1]; 125 g ai/ha): 0 | Plant response rating, Ryegrass, Italian ([1]; 250 g ai/ha): 10 | Plant response rating, Russian Thistle ([2]; 16 g ai/ha): 0 | Plant response rating, Russian Thistle ([2]; 31 g ai/ha): 0 | Plant response rating, Russian Thistle ([2]; 62 g ai/ha): 10 | Plant response rating, Russian Thistle ([2]; 125 g ai/ha): 20 | Plant response rating, Russian Thistle ([2]; 250 g ai/ha): 25 | Plant response rating, Blackgrass ([3]; 16 g ai/ha): 0 | Plant response rating, Blackgrass ([3]; 31 g ai/ha): 0 | Plant response rating, Blackgrass ([3]; 62 g ai/ha): 0 | Plant response rating, Blackgrass ([3]; 125 g ai/ha): 0 | Plant response rating, Blackgrass ([3]; 250 g ai/ha): 20 | Plant response rating, Bluegrass ([4]; 16 g ai/ha): 0 | Plant response rating, Bluegrass ([4]; 31 g ai/ha): 0 | Plant response rating, Bluegrass ([4]; 62 g ai/ha): 0 | Plant response rating, Bluegrass ([4]; 125 g ai/ha): 0 | Plant response rating, Bluegrass ([4]; 250 g ai/ha): 0 | Plant response rating, Canarygrass ([5]; 16 g ai/ha): 0 | Plant response rating, Canarygrass ([5]; 31 g ai/ha): 0 | Plant response rating, Canarygrass ([5]; 62 g ai/ha): 0 | Plant response rating, Canarygrass ([5]; 125 g ai/ha): 0 | Plant response rating, Canarygrass ([5]; 250 g ai/ha): 0 | Plant response rating, Chickweed ([6]; 16 g ai/ha): 0 | Plant response rating, Chickweed ([6]; 31 g ai/ha): 0 | Plant response rating, Chickweed ([6]; 62 g ai/ha): 10 | Plant response rating, Chickweed ([6]; 125 g ai/ha): 30 | Plant response rating, Chickweed ([6]; 250 g ai/ha): 50 | Plant response rating, Bromegrass, Downy ([7]; 16 g ai/ha): 0 | Plant response rating, Bromegrass, Downy ([7]; 31 g ai/ha): 0 | Plant response rating, Bromegrass, Downy ([7]; 62 g ai/ha): 0 | Plant response rating, Bromegrass, Downy ([7]; 125 g ai/ha): 0 | Plant response rating, Bromegrass, Downy ([7]; 250 g ai/ha): 0 | Plant response rating, Field Violet ([8]; 16 g ai/ha): 0 | Plant response rating, Field Violet ([8]; 31 g ai/ha): 0 | Plant response rating, Field Violet ([8]; 62 g ai/ha): 10 | Plant response rating, Field Violet ([8]; 125 g ai/ha): 10 | Plant response rating, Galium ([9]; 16 g ai/ha): 0 | Plant response rating, Galium ([9]; 31 g ai/ha): 0 | Plant response rating, Galium ([9]; 62 g ai/ha): 0 | Plant response rating, Galium ([9]; 125 g ai/ha): 0 | Plant response rating, Galium ([9]; 250 g ai/ha): 0 | Plant response rating, Foxtail, Green ([10]; 16 g ai/ha): 0 | Plant response rating, Foxtail, Green ([10]; 31 g ai/ha): 0 | Plant response rating, Foxtail, Green ([10]; 62 g ai/ha): 0 | Plant response rating, Foxtail, Green ([10]; 125 g ai/ha): 0 | Plant response rating, Foxtail, Green ([10]; 250 g ai/ha): 10 | Plant response rating, Kochia (kochia (Kochia scoparia); 16 g ai/ha): 0 | Plant response rating, Kochia (kochia (Kochia scoparia); 31 g ai/ha): 0 | Plant response rating, Kochia (kochia (Kochia scoparia); 62 g ai/ha): 20 | Plant response rating, Kochia (kochia (Kochia scoparia); 125 g ai/ha): 10 | Plant response rating, Kochia (kochia (Kochia scoparia); 250 g ai/ha): 20 | Plant response rating, Lambsquarters ([11]; 16 g ai/ha): 0 | Plant response rating, Lambsquarters ([11]; 31 g ai/ha): 0 | Plant response rating, Lambsquarters ([11]; 62 g ai/ha): 10 | Plant response rating, Lambsquarters ([11]; 125 g ai/ha): 20 | Plant response rating, Lambsquarters ([11]; 250 g ai/ha): 25 | Plant response rating, Pigweed ([12]; 16 g ai/ha): 30 | Plant response rating, Pigweed ([12]; 31 g ai/ha): 30 | Plant response rating, Pigweed ([12]; 62 g ai/ha): 50 | Plant response rating, Pigweed ([12]; 125 g ai/ha): 75 | Plant response rating, Pigweed ([12]; 250 g ai/ha): 80 | Plant response rating, Barley, Spring ([13]; 16 g ai/ha): 0 | Plant response rating, Barley, Spring ([13]; 31 g ai/ha): 0 | Plant response rating, Barley, Spring ([13]; 62 g ai/ha): 0 | Plant response rating, Barley, Spring ([13]; 125 g ai/ha): 0 | Plant response rating, Barley, Spring ([13]; 250 g ai/ha): 0 | Plant response rating, Wheat, Spring ([14]; 16 g ai/ha): 0 | Plant response rating, Wheat, Spring ([14]; 31 g ai/ha): 0 | Plant response rating, Wheat, Spring ([14]; 62 g ai/ha): 0 | Plant response rating, Wheat, Spring ([14]; 125 g ai/ha): 0 | Plant response rating, Wheat, Spring ([14]; 250 g ai/ha): 0 | Plant response rating, Buckwheat, Wild ([15]; 16 g ai/ha): 0 | Plant response rating, Buckwheat, Wild ([15]; 31 g ai/ha): 0 | Plant response rating, Buckwheat, Wild ([15]; 62 g ai/ha): 0 | Plant response rating, Buckwheat, Wild ([15]; 125 g ai/ha): 10 | Plant response rating, Buckwheat, Wild ([15]; 250 g ai/ha): 20 | Plant response rating, Mustard, Wild ([16]; 16 g ai/ha): 20 | Plant response rating, Mustard, Wild ([16]; 31 g ai/ha): 20 | Plant response rating, Mustard, Wild ([16]; 62 g ai/ha): 70 | Plant response rating, Mustard, Wild ([16]; 125 g ai/ha): 70 | Plant response rating, Mustard, Wild ([16]; 250 g ai/ha): 80 | Plant response rating, Oat, Wild (wild oat (Avena fatua); 16 g ai/ha): 0 | Plant response rating, Oat, Wild (wild oat (Avena fatua); 31 g ai/ha): 0 | Plant response rating, Oat, Wild (wild oat (Avena fatua); 62 g ai/ha): 0 | Plant response rating, Oat, Wild (wild oat (Avena fatua); 125 g ai/ha): 0 | Plant response rating, Oat, Wild (wild oat (Avena fatua); 250 g ai/ha): 0 | Plant response rating, Barley, Winter ([17]; 16 g ai/ha): 0 | Plant response rating, Barley, Winter ([17]; 31 g ai/ha): 0 | Plant response rating, Barley, Winter ([17]; 62 g ai/ha): 0 | Plant response rating, Barley, Winter ([17]; 125 g ai/ha): 0 | Plant response rating, Barley, Winter ([17]; 250 g ai/ha): 0 | Plant response rating, Wheat, Winter ([18]; 16 g ai/ha): 0 | Plant response rating, Wheat, Winter ([18]; 31 g ai/ha): 0 | Plant response rating, Wheat, Winter ([18]; 62 g ai/ha): 0 | Plant response rating, Wheat, Winter ([18]; 125 g ai/ha): 0 | Plant response rating, Wheat, Winter ([18]; 250 g ai/ha): 0
